The test system of the experiment is Plasmodium berghei. Description: Luciferase/luciferin-expressing antifolate-resistant parasites were used to infect a culture of HepG2 cells that were pre-incubated with compounds. Infected hepatocytes emit light due to the luciferase reaction. Assay results are presented as the percent inhibition of light emission compared to control. […]. The class given is functional. Particulars: sporozoite; for IC90: read-out: LUCIFERASE INFECTION ASSAY - IC90.

The mark [1] stands for this setting: read-out: LUCIFERASE INFECTION ASSAY - IC50.

SMILES strings stand for the structures. pIC50: −log10 of the molar value. Some results are limits rather than exact numbers.

Turning to `CCOc1ccc(OCC)c(S(=O)(=O)Oc2cccc3ccc(C)nc23)c1`, the IC90 (as a rule, the concentration needed for an effect of 90%) was more than 8.52 µM. In addition, the pIC50 – broadly, the negative decadic logarithm of the IC50, by convention in mol/L – (HEPG2TOX_HILL_SLOPE 2.15, HEPG2TOX_R_SQUARED 0.762, PBLUC_HILL_SLOPE 2.2, PBLUC_R_SQUARED 0.11, read-out: LUCIFERASE INFECTION ASSAY - IC50) was 5.14.

Consider `CCN(c1ccc(-c2csc(Nc3ccc4c(c3)OCCO4)n2)cc1)S(C)(=O)=O`, for which the IC90 is 5.7 µM. In addition, the pIC50 (FFLUC_HILL_SLOPE 1.56, FFLUC_R_SQUARED 0.608, HEPG2TOX_HILL_SLOPE 4.65, HEPG2TOX_R_SQUARED 0.413, PBLUC_HILL_SLOPE 3.4, PBLUC_R_SQUARED 0.614, read-out: LUCIFERASE INFECTION ASSAY - IC50) was 5.52.

Turning to `CO[C@H]1[C@H](C)O[C@@H](O[C@H]2CC[C@]3(C)C4C[C@@H](O)[C@]5(C)[C@@H](C6=CC(=O)OC6)[C@@H](OC(C)=O)C[C@]5(O)C4CC[C@@H]3C2)C[C@@H]1O` (some centres not stated), the IC90 came to 0.626 µM. The pIC50 (HEPG2TOX_HILL_SLOPE 2.15, HEPG2TOX_R_SQUARED 0.965, PBLUC_HILL_SLOPE 1.44, PBLUC_R_SQUARED 0.806, read-out: LUCIFERASE INFECTION ASSAY - IC50) is 6.87.

`Cc1ccc(Nc2cc(C(C)C)c(OS(=O)(=O)c3ccc(C)cc3)c(C(C)C)c2)cc1`: the IC90 amounted to 9.61 µM. The pIC50 (HEPG2TOX_HILL_SLOPE 1.43, HEPG2TOX_R_SQUARED 0.724, PBLUC_HILL_SLOPE 19.9, PBLUC_R_SQUARED 0.613, read-out: LUCIFERASE INFECTION ASSAY - IC50) is 5.07.

In the case of `Cc1cc(C)n(CC(=O)n2cc(C(=O)c3cc(F)ccc3O)cn2)n1`, the IC90 was more than 10 µM. Further, the negative-log IC50 (pIC50) under setting [1] was less than 5.00.

`COc1cc(OC)cc(-c2cnc3cnc(-c4cccc(C)c4C)cn23)c1`: the IC90 came out at 8.63 µM. The pIC50 (HEPG2TOX_HILL_SLOPE 2.52, HEPG2TOX_R_SQUARED 0.881, PBLUC_HILL_SLOPE 5.04, PBLUC_R_SQUARED 0.463, read-out: LUCIFERASE INFECTION ASSAY - IC50) is 5.25.

`CC(C(=O)Nc1cc(S(=O)(=O)N2CCCCC2)ccc1Cl)N1CCN(c2ccccn2)CC1` (configuration not stated): the IC90 is more than 10 µM. Besides, under setting [1], the pIC50 was less than 5.00.

Regarding `CCOC(=O)c1c(C)[nH]c(-c2csc(/C(C#N)=C/c3ccc[nH]3)n2)c1C`, the IC90 was more than 10 µM. Moreover, the pIC50 (FFLUC_HILL_SLOPE 1.13, FFLUC_R_SQUARED 0.248, HEPG2TOX_HILL_SLOPE 11.9, HEPG2TOX_R_SQUARED 0.816, PBLUC_HILL_SLOPE 50.7, PBLUC_R_SQUARED 0.357, read-out: LUCIFERASE INFECTION ASSAY - IC50) was 5.02.

As for `Cc1cc(-c2cc(C(=O)NCCN3CCOCC3)c3cnn(C(C)C)c3n2)c(C)s1`, the IC90 is more than 10 µM. Further, the pIC50 under setting [1] was less than 5.00.

Regarding `Cn1cc(-c2cnc3cnc(-c4ccc5c(c4)OCO5)cn23)cn1`, the concentration for an effect of 90% (IC90) is more than 10.3 µM. The pIC50 (PBLUC_HILL_SLOPE 3.19, PBLUC_R_SQUARED 0.356, read-out: LUCIFERASE INFECTION ASSAY - IC50) was 5.02.

For `Cc1ccc2nc(-c3ccc(NC(=O)CN4C(=O)NC(C)(c5ccc(OC(F)F)cc5)C4=O)cc3)sc2c1` (configuration not stated), the IC90 was more than 10 µM. Further, the pIC50 (PBLUC_HILL_SLOPE 1.6, PBLUC_R_SQUARED 0.077, read-out: LUCIFERASE INFECTION ASSAY - IC50) was less than 5.00.

Turning to `O=c1c2c3c(sc2nc(SCc2cc([N+](=O)[O-])cc4c2OCOC4)n1C1CCCC1)CCCC3`, the IC90 is more than 10 µM. Under “FFLUC_HILL_SLOPE 0.343, FFLUC_R_SQUARED 0.0189, read-out: LUCIFERASE INFECTION ASSAY - IC50”, the pIC50 is less than 5.00.

Take `O=S(=O)(Oc1cccc2[nH]ccc12)c1ccc(Cl)cc1Cl`: the IC90 was more than 9.64 µM. Besides, under setting [1], the pIC50 is less than 5.02.

In the case of `Cc1ccc(N2C(=O)/C(=C\c3ccc4c(c3)OCO4)N=C2SCC(=O)NCC2CCCO2)cc1` (configuration not stated), the IC90 is more than 10 µM. For the same compound, the pIC50 under setting [1] is less than 5.00.

Consider `CC(C)Cn1c(N)c(C(=O)COC(=O)c2c3c(nc4ccccc24)CCCCC3)c(=O)n(C)c1=O`, for which the IC90 was 1.27 µM. For the same compound, the pIC50 (HEPG2TOX_HILL_SLOPE 9.18, HEPG2TOX_R_SQUARED 0.068, PBLUC_HILL_SLOPE 16.7, PBLUC_R_SQUARED 0.609, read-out: LUCIFERASE INFECTION ASSAY - IC50) is 5.95.

Take `CC1(C)CCc2cc(/C=N/C(C#N)C(=N)C#N)ccc2O1` (configuration not stated): the IC90 is more than 11.8 µM. Moreover, the pIC50 (FFLUC_HILL_SLOPE 1.61, FFLUC_R_SQUARED 0.207, read-out: LUCIFERASE INFECTION ASSAY - IC50) is less than 4.93.

Turning to `Cc1nc2ccc(N/N=C(/C(=O)Nc3c(Cl)cccc3Cl)C(=O)c3ccccc3)cc2s1`, the IC90 was found to be 8.28 µM. Further, the pIC50 under setting [1] is 5.29.

With `Cc1cc(NC(=O)C(Nc2ccc(N3CCCC3)c(C)c2)c2ccccc2)no1` (configuration not stated), the IC90 was more than 10 µM. Besides, the pIC50 (FFLUC_HILL_SLOPE 3.98, FFLUC_R_SQUARED 0.653, PBLUC_HILL_SLOPE 2, PBLUC_R_SQUARED 0.333, read-out: LUCIFERASE INFECTION ASSAY - IC50) was less than 5.00.

`Cc1ccnc(SCc2cc(=O)n3nc(C)c(-c4ccc(F)cc4)c3[nH]2)n1`: the IC90 was more than 8.65 µM. For the same compound, the pIC50 (FFLUC_HILL_SLOPE 7.05, FFLUC_R_SQUARED 0.398, PBLUC_HILL_SLOPE 2.1, PBLUC_R_SQUARED 0.785, read-out: LUCIFERASE INFECTION ASSAY - IC50) is less than 5.06.

As for `CCOc1ccc(S(=O)(=O)N2CCCCC2)cc1NC(=O)C1CC=CCC1` (configuration not stated), the IC90 is more than 10 µM. Besides, under setting [1], the negative logarithm of the IC50 (pIC50) was less than 5.00.

Regarding `CCN(CC)C(=O)c1sc2nc(-c3ccccn3)nc(O)c2c1C`, the IC90 was more than 10 µM. The pIC50 under setting [1] is less than 5.00.

Turning to `N=C(NOC(=O)Nc1ccc(OC(F)(F)F)cc1)c1cc(Cl)c(N)c(Cl)c1`, the IC90 was more than 7.8 µM. The pIC50 under setting [1] is less than 5.11.

As for `CCOc1ccc(-n2c(-c3ccc(Cl)cc3)c[n+]3c2SCC3)cc1`, the IC90 is 8.41 µM. Also, where the note is “HEPG2TOX_HILL_SLOPE 17.5, HEPG2TOX_R_SQUARED 0.639, PBLUC_HILL_SLOPE 3.46, PBLUC_R_SQUARED 0.768, read-out: LUCIFERASE INFECTION ASSAY - IC50”, the pIC50 was 5.35.

Consider `N#CC(Cc1ccccc1)Sc1nnc(-c2ccccc2)n1-c1ccccc1` (configuration not stated), for which the 90% effect concentration (IC90) is more than 10 µM. For the setting “FFLUC_HILL_SLOPE 0.339, FFLUC_R_SQUARED 0.0197, read-out: LUCIFERASE INFECTION ASSAY - IC50”, the negative-log IC50 (pIC50) was less than 5.00.

Consider `Cc1cc(C(=O)CSc2nc3ccccc3[nH]2)c(C)n1-c1ccc(F)cc1`, for which the 90% effect concentration (IC90) amounted to 0.513 µM. Besides, the negative-log IC50 (pIC50) (HEPG2TOX_HILL_SLOPE 0.596, HEPG2TOX_R_SQUARED 0.924, PBLUC_HILL_SLOPE 3.63, PBLUC_R_SQUARED 0.908, read-out: LUCIFERASE INFECTION ASSAY - IC50) is 6.55.

On to `O=C(Nc1cccc(F)c1)C1(c2ccnc(Nc3ccc(C(F)(F)F)cc3)c2)CC1`, for which the concentration for an effect of 90% (IC90) was more than 10 µM. The negative logarithm of the IC50 (pIC50) under setting [1] is less than 5.00.

For the origin of these results see ChEMBL document CHEMBL4483862, “Open-source discovery of chemical leads for next-generation chemoprotective antimalarials” (2018).
